Test results: patent US8921552B2, “Benzothiazole hybrids useful as anticancer agents and process for the preparation thereof” (Council of Scientific & Industrial Research, priority 2011, dated 2014)

What was measured:
IGR-OV-1 = test: In vitro cytotoxicity, SRB assay, ovarian cancer cell line IGR-OV-1; assay type: cell-based, human; settings: Homo sapiens, IGROV-1, IGR-OV-1 (ovarian), read-out: % of growth inhibition; for inhibition at 10 µM: 48 h exposure
From the text: (§1) The benzothiazole hybrids has been tested against seven human tumor cell lines derived from six cancer types (lung cancer, colon cancer, CNS cancer, ovarian cancer, prostate cancer and breast cancer). For these compounds results are expressed as percent of cell growth inhibition relative to that of untreated control cells.

A-549 = test: In vitro cytotoxicity, SRB assay, lung cancer cell line A-549; assay type: cell-based, human; settings: Homo sapiens, A549, A-549 (lung), read-out: % of growth inhibition; for inhibition at 10 µM: 48 h exposure
From the text: as §1

MCF7 = test: In vitro cytotoxicity, SRB assay, breast cancer cell line MCF7; assay type: cell-based, human; settings: Homo sapiens, read-out: % of growth inhibition; for inhibition at 10 µM: 48 h exposure
From the text: as §1

SW-620 = test: In vitro cytotoxicity, SRB assay, colon cancer cell line SW-620; assay type: cell-based; settings: Homo sapiens, SW-620 (colon), 48 h exposure, read-out: % of growth inhibition
Experimental: as §1, with “cells. A protocol of 48 h continuous drug exposure has been used, and a sulforhodamine B (SRB) protein assay was used to estimate cell viability or growth.” for “cells.”
(§2) The compounds 9b, 9h, 9m, 9r, 15c, 15h, 15m, 15r, 10b, 10h, 10m, 10r, 16c, 16h and 16m were evaluated for in vitro anticancer activity against seven human tumor cells derived from six cancer types (lung cancer, colon cancer, CNS cancer, ovarian cancer, prostate cancer and breast cancer) at concentration of 10 μM and the results are shown in Table 1.

PC-3 = test: In vitro cytotoxicity, SRB assay, prostate cancer cell line PC-3; assay type: cell-based, human; settings: Homo sapiens, PC-3 (prostate), read-out: % of growth inhibition; for inhibition at 10 µM: 48 h exposure
From the text: as §1

human tumor cell lines = test: In vitro anticancer activity, panel of seven human tumor cell lines (SRB assay); assay type: cell-based; settings: for inhibition at 10 µM: Homo sapiens, range over the cell lines, exposure period of at least 48 hrs, read-out: percentage growth inhibition for invitro anticancer activity; for cytotoxic activity in words: various human tumour cell lines
Experimental: as §1, with “cells. A protocol of 48 h continuous drug exposure has been used, and a sulforhodamine B (SRB) protein assay was used to estimate cell viability or growth.” for “cells.”
as §2

SF-295 = test: In vitro cytotoxicity, SRB assay, CNS cancer cell line SF-295; assay type: cell-based, human; settings: Homo sapiens, SF-295 (CNS), read-out: % of growth inhibition; for inhibition at 10 µM: 48 h exposure
From the text: as §1

Colo-205 = test: In vitro cytotoxicity, SRB assay, colon cancer cell line Colo-205; assay type: cell-based, human; settings: Homo sapiens, Colo-205 (colon), read-out: % of growth inhibition
From the text: as §1

## COc1cc(-c2nc3ccccc3s2)ccc1OCCCOc1cc(/C=C/C(=O)c2cc(OC)c(OC)c(OC)c2)ccc1OC [Compound 10b, (E)-3-(3-{3-[4-(1,3-benzothiazol-2-yl)-2-methoxyphenoxy]propoxy}-4-methoxyphenyl)-1-(3,4,5-trimethoxyphenyl)-2-propen-1-one]
IGR-OV-1
  inhibition at 10 µM: 21%
A-549
  inhibition at 10 µM: 66%
MCF7
  inhibition at 10 µM: 19%
SW-620
  inhibition at 10 µM: 0%
PC-3
  inhibition at 10 µM: 5%
Human tumor cell lines
  inhibition at 10 µM: 1 to 100%
SF-295
  inhibition at 10 µM: 51%

## COc1ccc(/C=C/C(=O)c2cc(OC)c(OC)c(OC)c2)cc1OCCCCOc1cc(-c2nc3ccccc3s2)ccc1OC [Compound 10m, (E)-3-(3-{4-[5-(1,3-benzothiazol-2-yl)-2-methoxyphenoxy]butoxy}-4-methoxyphenyl)-1-(3,4,5-trimethoxyphenyl)-2-propen-1-one]
IGR-OV-1
  inhibition at 10 µM: 17%
A-549
  inhibition at 10 µM: 7%
MCF7
  inhibition at 10 µM: 24%
SW-620
  inhibition at 10 µM: 27%
PC-3
  inhibition at 10 µM: 0%
Human tumor cell lines
  inhibition at 10 µM: 1 to 100%
SF-295
  inhibition at 10 µM: 14%

## COc1ccc(/C=C/C(=O)c2cc(OC)c(OC)c(OC)c2)cc1OCCCCOc1cccc(-c2nc3ccccc3s2)c1 [Compound 10r, (E)-3-(3-{4-[3-(1,3-benzothiazol-2-yl)phenoxy]butoxy}-4-methoxyphenyl)-1-(3,4,5-trimethoxyphenyl)-2-propen-1-one]
IGR-OV-1
  inhibition at 10 µM: 0%
A-549
  inhibition at 10 µM: 41%
MCF7
  inhibition at 10 µM: 14%
SW-620
  inhibition at 10 µM: 0%
PC-3
  inhibition at 10 µM: 1%
Human tumor cell lines
  inhibition at 10 µM: 1 to 100%
SF-295
  inhibition at 10 µM: 21%

## COc1ccc(/C=C\c2cc(OC)c(OC)c(OC)c2)cc1OCCCCN1CCN(CCCCOc2cc(-c3nc4ccccc4s3)ccc2OC)CC1 [Compound 15m, 2-[4-methoxy-3-({4-[4-(4-{2-methoxy-5-[(Z)-2-(3,4,5-trimethoxyphenyl)-1-ethenyl]phenoxy}butyl)piperazino]butyl}oxy)phenyl]-1,3-benzothiazole]
IGR-OV-1
  inhibition at 10 µM: 99%
A-549
  inhibition at 10 µM: 100%
MCF7
  inhibition at 10 µM: 97%
SW-620
  inhibition at 10 µM: 99%
PC-3
  inhibition at 10 µM: 60%
Human tumor cell lines
  inhibition at 10 µM: 1 to 100%
  cytotoxic activity in words: increase in activity
SF-295
  inhibition at 10 µM: 98%

## COc1ccc(/C=C/C(=O)c2cc(OC)c(OC)c(OC)c2)cc1OCCCCN1CCN(CCCCOc2ccc(-c3nc4ccccc4s3)cc2)CC1 [Compound 16h, (E)-3-(3{-[4-(4-{4-[4-(1,3-benzothiazol-2-yl)phenoxy]butyl}piperazino)butyl]oxy}-4-methoxyphenyl)-1-(3,4,5-trimethoxyphenyl)-2-propen-1-one]
IGR-OV-1
  inhibition at 10 µM: 73%
A-549
  inhibition at 10 µM: 59%
MCF7
  inhibition at 10 µM: 84%
SW-620
  inhibition at 10 µM: 0%
PC-3
  inhibition at 10 µM: 67%
Human tumor cell lines
  inhibition at 10 µM: 1 to 100%
SF-295
  inhibition at 10 µM: 63%

## CC(=O)O[C@H]1C(=O)[C@@]2(C)[C@H]([C@H](OC(=O)c3ccccc3)[C@]3(O)C[C@H](OC(=O)[C@H](O)[C@@H](NC(=O)c4ccccc4)c4ccccc4)C(C)=C1C3(C)C)[C@]1(OC(C)=O)CO[C@@H]1C[C@@H]2O [Paclitaxel, reference compound]
IGR-OV-1; reference drug at 1 μM
  inhibition at 1 µM: 44%
A-549; reference drug at 1 μM
  inhibition at 1 µM: 62%
MCF7; reference drug at 1 μM
  inhibition at 1 µM: 59%
PC-3; reference drug at 1 μM
  inhibition at 1 µM: 35%
Colo-205; reference drug at 1 μM
  inhibition at 1 µM: 95%
SF-295; reference drug at 1 μM
  inhibition at 1 µM: 59%

## COc1cc(-c2nc3ccccc3s2)ccc1OCCCOc1cc(/C=C\c2cc(OC)c(OC)c(OC)c2)ccc1OC [Compound 9b, 2-[3-methoxy-4-(3-{2-methoxy-5-[(Z)-2-(3,4,5-trimethoxyphenyl)-1-ethenyl]phenoxy}propoxy)phenyl]-1,3-benzothiazole]
IGR-OV-1
  inhibition at 10 µM: 54%
A-549
  inhibition at 10 µM: 69%
MCF7
  inhibition at 10 µM: 57%
PC-3
  inhibition at 10 µM: 78%
Colo-205; 10 μM, 48 h exposure
  inhibition at 10 µM: 16%
Human tumor cell lines
  inhibition at 10 µM: 1 to 100%
SF-295
  inhibition at 10 µM: 53%

## COc1ccc(/C=C/C(=O)c2cc(OC)c(OC)c(OC)c2)cc1OCCCCOc1ccc(-c2nc3ccccc3s2)cc1 [Compound 10h, (E)-3-(3-{4-[4-(1,3-benzothiazol-2-yl)phenoxy]butoxy}-4-methoxyphenyl)-1-(3,4,5-trimethoxyphenyl)-2-propen-1-one]
IGR-OV-1
  inhibition at 10 µM: 17%
A-549
  inhibition at 10 µM: 31%
MCF7
  inhibition at 10 µM: 9%
SW-620
  inhibition at 10 µM: 2%
PC-3
  inhibition at 10 µM: 6%
Human tumor cell lines
  inhibition at 10 µM: 1 to 100%
SF-295
  inhibition at 10 µM: 38%

## COc1cc(-c2nc3ccccc3s2)ccc1OCCCCN1CCN(CCCCOc2cc(/C=C\c3cc(OC)c(OC)c(OC)c3)ccc2OC)CC1 [Compound 15c, 2-[3-methoxy-4-({4-[4-(4-{2-methoxy-5-[(Z)-2-(3,4,5-trimethoxyphenyl)-1-ethenyl]phenoxy}butyl)piperazino]butyl}oxy)phenyl]-1,3-benzothiazole]
IGR-OV-1
  inhibition at 10 µM: 95%
A-549
  inhibition at 10 µM: 88%
MCF7
  inhibition at 10 µM: 95%
SW-620
  inhibition at 10 µM: 86%
PC-3
  inhibition at 10 µM: 53%
Human tumor cell lines
  inhibition at 10 µM: 1 to 100%
  cytotoxic activity in words: increase in activity
SF-295
  inhibition at 10 µM: 99%

## COc1cc(-c2nc3ccccc3s2)ccc1OCCCCN1CCN(CCCCOc2cc(/C=C/C(=O)c3cc(OC)c(OC)c(OC)c3)ccc2OC)CC1 [Compound 16c, (E)-3-(3{-[4-(4-{4-[4-(1,3-benzothiazol-2-yl)-2-methoxyphenoxy]butyl}piperazino)butyl]oxy}-4-methoxyphenyl)-1-(3,4,5-trimethoxyphenyl)-2-propen-1-one]
IGR-OV-1
  inhibition at 10 µM: 67%
A-549
  inhibition at 10 µM: 58%
MCF7
  inhibition at 10 µM: 69%
SW-620
  inhibition at 10 µM: 0%
PC-3
  inhibition at 10 µM: 24%
Human tumor cell lines
  inhibition at 10 µM: 1 to 100%
SF-295
  inhibition at 10 µM: 24%

## COc1ccc(/C=C\c2cc(OC)c(OC)c(OC)c2)cc1OCCCCN1CCN(CCCCOc2ccc(-c3nc4ccccc4s3)cc2)CC1 [Compound 15h, 2-[4-({4-[4-(4-{2-methoxy-5-[(Z)-2-(3,4,5-trimethoxyphenyl)-1-ethenyl]phenoxy}butyl)piperazino]butyl}oxy)phenyl]-1,3-benzothiazole]
IGR-OV-1
  inhibition at 10 µM: 83%
A-549
  inhibition at 10 µM: 91%
MCF7
  inhibition at 10 µM: 93%
SW-620
  inhibition at 10 µM: 72%
PC-3
  inhibition at 10 µM: 96%
Human tumor cell lines
  inhibition at 10 µM: 1 to 100%
  cytotoxic activity in words: increase in activity
SF-295
  inhibition at 10 µM: 98%

## COc1ccc(/C=C/C(=O)c2cc(OC)c(OC)c(OC)c2)cc1OCCCCN1CCN(CCCCOc2cc(-c3nc4ccccc4s3)ccc2OC)CC1 [Compound 16m, (E)-3-(3{-[4-(4-{4-[5-(1,3-benzothiazol-2-yl)-2-methoxyphenoxy]butyl}piperazino)butyl]oxy}-4-methoxyphenyl)-1-(3,4,5-trimethoxyphenyl)-2-propen-1-one]
IGR-OV-1
  inhibition at 10 µM: 85%
A-549
  inhibition at 10 µM: 100%
MCF7
  inhibition at 10 µM: 57%
SW-620
  inhibition at 10 µM: 0%
PC-3
  inhibition at 10 µM: 2%
Human tumor cell lines
  inhibition at 10 µM: 1 to 100%
SF-295
  inhibition at 10 µM: 15%

## COc1ccc(/C=C\c2cc(OC)c(OC)c(OC)c2)cc1OCCCCN1CCN(CCCCOc2cccc(-c3nc4ccccc4s3)c2)CC1 [Compound 15r, 2-[3-({4-[4-(4{-2-methoxy-5-[(Z)-2-(3,4,5-trimethoxyphenyl)-1-ethenyl]phenoxy}butyl)piperazino]butyl}oxy)phenyl]-1,3-benzothiazole]
IGR-OV-1
  inhibition at 10 µM: 92%
A-549
  inhibition at 10 µM: 96%
MCF7
  inhibition at 10 µM: 88%
SW-620
  inhibition at 10 µM: 99%
PC-3
  inhibition at 10 µM: 70%
Human tumor cell lines
  inhibition at 10 µM: 1 to 100%
  cytotoxic activity in words: increase in activity
SF-295
  inhibition at 10 µM: 98%

## COc1ccc(/C=C\c2cc(OC)c(OC)c(OC)c2)cc1OCCCCOc1cccc(-c2nc3ccccc3s2)c1 [Compound 9r, 2-[3-(4-{2-methoxy-5-[(Z)-2-(3,4,5-trimethoxyphenyl)-1-ethenyl]phenoxy}butoxy)phenyl]-1,3-benzothiazole]
IGR-OV-1
  inhibition at 10 µM: 48%
A-549
  inhibition at 10 µM: 59%
MCF7
  inhibition at 10 µM: 52%
SW-620
  inhibition at 10 µM: 22%
PC-3
  inhibition at 10 µM: 59%
Human tumor cell lines
  inhibition at 10 µM: 1 to 100%
SF-295
  inhibition at 10 µM: 71%
